Measurements reported in article PMC3848067 (Acta Naturae, 2013).
Read-outs that look alike come from different tables or passages of the source.

Experiments:
[1] = test system: bone marrow cells of hybrid mice F1(CBAxC57Bl6); conditions: doses 50-fold higher than maximum recommended therapeutic dose for humans; cited from earlier work
[2] = canine whole blood at 37°С; cited from earlier work
[3] = test system: mice; conditions: cited from earlier work
[4] = dogs, 50 mg (2–5 mg/kg), cited from earlier work
[5] = pharmacokinetics after single-dose oral administration to dogs; conditions: comparison from Table 2
[6] = rabbits; cited from earlier work
[7] = test system: cultured cells; conditions: cited from earlier work
[8] = rabbits, single oral dose of 7, 70 and 200 mg/kg; cited from earlier work
[9] = test system: mouse embryonic cells; conditions: doses 50-fold higher than maximum recommended therapeutic dose for humans; cited from earlier work
[10] = rabbits, oral course, 1 g in 4–5 ml of water, after 6 and 18 h during 5 days; cited from earlier work
[11] = test system: pregnant female rats; conditions: intragastric 133 mg/kg daily on days 1–19 of gestation; cited from earlier work
[12] = test system: dogs; conditions: intragastric, 166 mg/kg daily for 4 weeks; cited from earlier work
[13] = test system: guinea pigs; conditions: doses and sensibilization schemes tested; cited from earlier work
[14] = test system: rats; conditions: Wistar rats, intragastric 133 mg/kg daily, 10 weeks males and 2 weeks females; cited from earlier work
[15] = test system: mice; conditions: cited from earlier work; remark: listed apart in the source
[16] = dogs, cited from earlier work; for AUC / Cmax / Cmax/AUC / MRT / t1/2 / tmax: value for the tested compound (2 or its metabolite AZT)
[17] = test system: rats; conditions: cited from earlier work
[18] = test system: MT-4 cells; conditions: MT-4 cell line; cited from earlier work
[19] = extrapolated for single-dose oral administration of 600 mg of phosphonate 2
[20] = rats, intraperitoneal, 20 mg/kg; parameters of phosphonate 2; cited from earlier work
[21] = rats, oral, 20 mg/kg; cited from earlier work
[22] = test system: rats; conditions: intragastric, 133 and 266 mg/kg daily for 3 months; cited from earlier work
[23] = cited from earlier work
[24] = test system: guinea pigs; conditions: sensibilizing doses 133 and 266 mg/kg, provoking dose 266 mg/kg on days 14 and 21; cited from earlier work
[25] = test system: Salmonella typhimurium; conditions: concentrations of up to 1 mg/dish; cited from earlier work
[26] = test system: HIV-1; conditions: cited from earlier work
[27] = single oral dose of phosphonate 2, 200 mg/kg; cited from earlier work
[28] = test system: mice; conditions: cited from earlier work; remark: listed apart in the source
[29] = single oral dose of capsules of 2, 10 mg/kg
[30] = single oral dose of capsules of 2, 20 mg/kg
[31] = single oral dose of capsules of 2, 40 mg/kg

Compound: Cc1cn([C@H]2C[C@H](N=[N+]=[N-])[C@@H](COP(=O)(O)C(N)=O)O2)c(=O)[nH]c1=O [Compound 2, AZT 5’-aminocarbonyl phosphonate]
- chromosomal aberrations in mouse bone marrow cells [1]: neither caused an increase in the number of chromosomal aberrations
- Т1/2 in canine whole blood [2]: > 24 h
- primary immune response ([3]; F1(CBAxC57BI6) mice, 332 mg/kg): reduced the primary immune response to a certain extent
- hypersensitivity of the decelerated type reaction ([3]; mice, 166 and 332 mg/kg): nor the hypersensitivity of the decelerated type reaction
- number of nuclear cells in spleen ([3]; mice, 166 and 332 mg/kg): affects neither the number of nuclear cells in spleen
- AZT in blood plasma after intravenous administration [4]: No AZT has been detected
- AUC t ([4]; intravenous, parameters of 2): 2190 ng·h/mL
- CL ([4]; intravenous, parameters of 2): 16.8 L/h
- MRT ([4]; intravenous, parameters of 2): 0.74 h
- Vss ([4]; intravenous, parameters of 2): 12.4 L
- t1/2 ([4]; intravenous, parameters of 2): 0.35 h
- Cmax of AZT, times lower than for phosphazide [5]: 2.5 times
- AZT in peripheral blood after intravenous administration [6]: AZT has not been detected
- efficiency of penetration into cells, times lower than that of AZT [7]: 10–100 times
- efficiency of penetration into cells, times lower than that of phosphazide [7]: approximately 6 times
- presence of AZT in blood [8]: AZT is present in the blood in all the cases
- dominant lethal mutations in mouse embryonic cells [9]: nor affected the number of dominant lethal mutations
- accumulation in blood [10]: gradual accumulation
- embryotoxic and teratogenic effects [11]: neither embryotoxic nor teratogenic effects
- tolerability, capsules [12]: well-tolerated by the animals
- allergic effect in type III hypersensitivity reaction [13]: no allergic effect
- effect on animal reproduction function [14]: no effects
- popliteal lymph node reaction [15]: not to affect the popliteal lymph node reaction
- bioavailability of 5’-aminocarbonyl phosphonate 2 ([16]; administered orally at specified doses): 4.7%
- bioavailability of AZT after 2 had been administered orally ([16]; oral): 8%
- AUC [16, 29]: 470 ± 150 ng·h/mL
- Cmax [16, 29]: 310 ± 90 ng/mL
- Cmax/AUC [16, 29]: 0.662 ± 0.066 h⁻¹
- MRT [16, 29]: 2.43 ± 0.04 h
- t1/2 [16, 29]: 0.62 ± 0.1 h
- tmax [16, 29]: 1.5 ± 0.25 h
- AUC [16, 30]: 980 ± 440 ng·h/mL
- Cmax [16, 30]: 510 ± 180 ng/mL
- Cmax/AUC [16, 30]: 0.561 ± 0.122 h⁻¹
- MRT [16, 30]: 2.65 ± 0.16 h
- t1/2 [16, 30]: 0.81 ± 0.2 h
- tmax [16, 30]: 1.6 ± 0.2 h
- AUC [16, 31]: 1250 ± 860 ng·h/mL
- Cmax [16, 31]: 510 ± 260 ng/mL
- Cmax/AUC [16, 31]: 0.478 ± 0.117 h⁻¹
- MRT [16, 31]: 2.87 ± 0.49 h
- t1/2 [16, 31]: 0.59 ± 0.2 h
- tmax [16, 31]: 1.75 ± 0.27 h
- tmax of AZT ([16]; single oral dose of the named compound equivalent to 20 mg of AZT/kg): 4 h
- signs after single-dose administration at toxic doses ([17]; rats, 2000–50000 mg/kg): short-term agitation in animals replaced by distress, inertness and adynamia
- LD50 ([17]; single-dose intragastric administration to rats): higher than 40 g/kg
- toxicity, times lower than that of AZT [18]: 34–50 times
- toxicity, times lower than that of phosphazide [18]: 12.5–15 times
- expected AZT concentration in human blood plasma [19]: 100 to 115 ng/mL
- AUC0–t [20]: 8020 ng·h/mL
- MRT [20]: 0.82 h
- Vss [20]: 0.37 L
- t1/2 [20]: 0.42 h
- СL [20]: 0.45 L/h
- original phosphonate 2 in blood plasma [21]: No original phosphonate 2 was detected
- tolerability, chronic administration [22]: well-tolerated by animals
- half-life in 100% human blood serum [23]: over 6 h
- anaphylactic shock [24]: no anaphylactic shock
- number of revertants in the Ames test [25]: does not increase the number of revertants
- antiviral activity (inhibition of viral replication) relative to AZT ([26]; HIV-infected MT-4 cells): inferior to that of AZT by about an order of magnitude
- antiviral activity, times lower than that of phosphazide ([26]; MT-4 cell line): 3–4.5 times
- selectivity index compared to AZT and phosphazide ([26]; MT-4 cell line): higher
- original substance in daily urine and feces [27]: could not be detected
- mean lethal dose (LD50) ([28]; intraperitoneal administration to mice): ≥ 5000 mg/kg
- signs after single-dose administration at toxic doses ([28]; mice, 2000–50000 mg/kg): short-term agitation in animals replaced by distress, inertness and adynamia
